Results: publication PMC6086658, “Unified mechanisms for self-RNA recognition by RIG-I Singleton-Merten syndrome variants” (eLife, 2018)
Changes are numbered by the printed parent chain. Like-named read-outs stand apart in the source and are kept apart here.

Assays:
RIG-I = biological target: T1, RIG-I (Homo sapiens, UniProt O95786); experiment: MANT-nucleotide binding, tryptophan fluorescence FRET; conditions: absence of RNA; full-length His-RIG-I; n = 4; read-out: Affinity (KD) to RIG-I
T1 construct: Recombinant full-length human RIG-I or RIG-I single amino acid mutants (1–925, N-terminal His-tag); made in house; host or cells: High Five (Trichoplusia ni) insect cells, baculovirus, pFBDM vector
T1 sequence (O95786 1-925): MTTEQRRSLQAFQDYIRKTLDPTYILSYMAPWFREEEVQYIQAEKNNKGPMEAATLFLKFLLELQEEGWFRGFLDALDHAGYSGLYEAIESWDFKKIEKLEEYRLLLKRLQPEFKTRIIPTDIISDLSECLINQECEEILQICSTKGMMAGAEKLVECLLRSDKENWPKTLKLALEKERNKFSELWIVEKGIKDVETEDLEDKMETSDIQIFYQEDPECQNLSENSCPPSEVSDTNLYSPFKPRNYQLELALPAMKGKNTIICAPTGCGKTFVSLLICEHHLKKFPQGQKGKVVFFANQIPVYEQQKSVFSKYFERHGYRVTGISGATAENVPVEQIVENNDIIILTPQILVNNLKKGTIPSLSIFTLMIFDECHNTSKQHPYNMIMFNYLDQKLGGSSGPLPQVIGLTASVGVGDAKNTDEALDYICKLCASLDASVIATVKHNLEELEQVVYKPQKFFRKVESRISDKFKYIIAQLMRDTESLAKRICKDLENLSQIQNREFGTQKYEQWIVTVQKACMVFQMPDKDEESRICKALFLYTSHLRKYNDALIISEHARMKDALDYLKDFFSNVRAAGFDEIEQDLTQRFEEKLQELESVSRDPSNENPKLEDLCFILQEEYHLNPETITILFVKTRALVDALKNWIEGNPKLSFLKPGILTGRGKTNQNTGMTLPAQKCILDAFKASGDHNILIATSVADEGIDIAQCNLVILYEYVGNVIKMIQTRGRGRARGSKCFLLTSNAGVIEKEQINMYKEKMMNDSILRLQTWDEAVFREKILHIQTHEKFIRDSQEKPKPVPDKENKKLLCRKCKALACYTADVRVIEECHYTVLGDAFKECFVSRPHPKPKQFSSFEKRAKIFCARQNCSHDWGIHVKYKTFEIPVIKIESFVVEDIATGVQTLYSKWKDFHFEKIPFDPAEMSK
Experimental: (§1) Binding of MANT-ATP and MANT-ATPγS to different full-length RIG-I mutants (1–925, N-terminal His-tag) was determined via Förster resonance energy transfer from RIG-I to MANT-ATP (Jena Bioscience, Jena, Germany). […] Fluorescence of MANT-ATP was measured in a TECAN M1000 microplate reader at λex/em = 290/448 nm, gain = 170 using an average of five reads per well. Assays were performed four times in independent experiments using the same protein purification batch. For determination of affinities fluorescence values were fitted to Equation (1) using R, where y is the fluorescence, [P] is the protein concentration, Bmax is the maximal fluorescence and KD is the dissociation constant. Fitting was performed globally on all available datasets. Representative values in figures are mean values ± SD.

RIG-I E373Q = biological target: T2, RIG-I E373Q (Homo sapiens, UniProt O95786, E373Q); experiment: as above; conditions: n = 4
T2 construct: different full-length RIG-I mutants (1–925, N-terminal His-tag); made in house; host or cells: High Five (Trichoplusia ni) insect cells, baculovirus, pFBDM vector
T2 sequence (O95786 1-925 E373Q): T1 sequence (O95786 1-925) with E373Q
Experimental: as §1

## MANT-ATP
RIG-I
  Kd: 72 ± 13 µM
RIG-I E373Q; absence of RNA, read-out: Affinity (KD) to RIG-I E373Q
  Kd: 72 ± 13 µM
RIG-I E373Q; presence of equimolar 14mer dsRNA, read-out: Affinity (KD) to RIG-I E373Q + RNA
  Kd: 28 ± 5 µM
